Patent US20220401514A1, “ANTIMICROBIAL, BACTERIOPHAGE-DERIVED POLYPEPTIDES AND THEIR USE AGAINST GRAM-NEGATIVE AND ACID-FAST BACTERIA” (CONTRAFECT CORPORATION, priority 2019, published 2022)
Read-outs that look alike come from different tables or passages of the source.

How the values were obtained:
[1] = system: A. baumannii strain BAA-747 persister cells; test: Activity against persister cells, A. baumannii; assay type: cell-based, Acinetobacter baumannii
[2] = system: P. aeruginosa strain CFS-1292; test: Time-kill assay in CAA with 2.5% human serum; assay type: cell-based, Pseudomonas aeruginosa; settings: for Loss of bacterial viability: CAA with […] human serum, vs untreated controls
Experimental: Time-Kill Assay of Chp Peptide Activity. […] Exponential phase bacteria were then diluted 1:100 into CAA/HuS and peptide was added at a final concentration of either 1 or 10 μg/mL. Control cultures were included with no peptide added (i.e., buffer control).

[3] = system: isolates identified as having novel antibiotic resistance; test: MIC against CDC novel antibiotic resistance panel (n = 11); assay type: cell-based
Experimental: MIC values were determined using the methodology described above, i.e., the standard broth microdilution reference method defined by CLSI.
See wwwn.cdc.gov/ARIsolateBank/Panel/PanelDetail?ID=10.

[4] = system: P. aeruginosa strain PAO1; test: MIC against PAO1 in Mueller-Hinton broth with 50% human plasma or human serum; assay type: cell-based, Pseudomonas aeruginosa
[5] = system: P. aeruginosa strain PA20 persister cells; test: Activity against persister cells, P. aeruginosa; assay type: cell-based, Pseudomonas aeruginosa
[6] = system: Acinetobacter baumannii strain 30; test: Checkerboard assay (FICI) with antibiotics, A. baumannii; assay type: cell-based; set-up: key to FIC Index: FICI = FIC A + FIC B; ≤0.5 synergy, ≥2 antagonism; settings: for Chp peptide FIC / Chp peptide MIC: checkerboard
[7] = system: P. aeruginosa strain CFS-1292; test: LIVE/DEAD stain microscopy in 100% human serum; assay type: cell-based, Pseudomonas aeruginosa; settings: 15 minutes, 10 μg/mL
Text: Samples were visualized by BF and fluorescence microscopy (10 ms exposure). […] was used to label live cells, and PI was used to label damaged and dead cells.

[8] = system: P. aeruginosa strain CFS-1292; assay type: cell-based, Pseudomonas aeruginosa
[9] = system: P. aeruginosa strain CFS 1292; assay type: cell-based, Pseudomonas aeruginosa
[10] = system: Klebsiella pneumoniae strain 1139; test: Checkerboard assay (FICI) with antibiotics, K. pneumoniae; assay type: cell-based
Procedure, shortened: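 Antibiotics in 2-fold dilutions across one axis against Chp peptide dilutions on the other. FICI = MIC in combination/MIC alone for antibiotic plus the same ratio for peptide; minimum FICI used. Synergy at FICI ≤0.5, strongly additive >0.5 to <1, additive 1-<2, antagonistic ≥2.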

[11] = novel antibiotic resistance panel
[12] = in combination with Azithromycin
[13] = in combination with Ciprofloxacin
[14] = in combination with Levofloxacin
[15] = in combination with Piperacillin

MRLKMARRRYRLPRRRSRRLFSRTALRMHPRNRLRRIMRGGIRF [Chp2]
MIC Log10 (CFU/mL) Run #1 ([1]; A. baumannii BAA-747 persister cells, 1 hour at 37° C., Run #1, limit of detection 1.6-log10 CFU/mL): 1.5 Log10 (CFU/mL)
MIC Log10 (CFU/mL) Run #2 ([1]; A. baumannii BAA-747 persister cells, 1 hour at 37° C., Run #2, limit of detection 1.6-log10 CFU/mL): 2.2 Log10 (CFU/mL)
MIC Log10 (CFU/mL) Run #3 ([1]; A. baumannii BAA-747 persister cells, 1 hour at 37° C., Run #3, limit of detection 1.6-log10 CFU/mL): 1.5 Log10 (CFU/mL)
MIC Log10 (CFU/mL) Average ([1]; A. baumannii BAA-747 persister cells, average of 3 runs): 1.8 Log10 (CFU/mL)
Delta Log ([1]; A. baumannii BAA-747 persister cells, log10 CFU/mL reduction as compared to buffer): 3.1
log10 CFU/mL reduction as compared to buffer ([1]; A. baumannii persister cells, 1 hour at 37° C.): 3.1 log10 CFU/mL
Loss of bacterial viability ([2]; 1 μg/mL, 1 hour): >3.5 log10 CFU/mL
Loss of bacterial viability ([2]; 1 μg/mL, 3 hours): >4 log10 CFU/mL
Loss of bacterial viability ([2]; 1 μg/mL, 24 hours): >4.8 log10 CFU/mL
Loss of bacterial viability ([2]; 10 μg/mL, 1 hour): >3.5 log10 CFU/mL
Loss of bacterial viability ([2]; 10 μg/mL, 3 hours): >4 log10 CFU/mL
Loss of bacterial viability ([2]; 10 μg/mL, 24 hours): >4.8 log10 CFU/mL
bacterial viability after treatment (time-kill) ([2]; 1, 3 and 24 hours, 1 μg/mL and 10 μg/mL, CAA + […] human serum): multi-log fold decreases
MIC ([3]; Bank No. 0346, Escherichia coli): 0.25 mg/L
MIC ([3]; Bank No. 0347, Klebsiella pneumoniae): 0.5 mg/L
MIC ([3]; Bank No. 0348, Escherichia coli): 0.5 mg/L
MIC ([3]; Bank No. 0349, Escherichia coli): 1 mg/L
MIC ([3]; Bank No. 0350, Escherichia coli): 1 mg/L
MIC ([3]; Bank No. 0493, Escherichia coli): 0.5 mg/L
MIC ([3]; Bank No. 0494, Escherichia coli): 1 mg/L
MIC ([3]; Bank No. 0495, Escherichia coli): 1 mg/L
MIC ([3]; Bank No. 0497, Klebsiella pneumoniae): 0.5 mg/L
MIC ([3]; Bank No. 0538, Escherichia coli): 1 mg/L
MIC ([3]; Bank No. 0637, Citrobacter freundi): 1 mg/L
MIC50 [3, 11]: 0.5 mg/L
MIC90 [3, 11]: 1 mg/L
MIC [4]: 2 mg/L
Minimal inhibitory concentration, Human Serum [4]: 2 mg/L
Viable persister count after treatment (log10 CFU/mL) ([5]; P. aeruginosa PA20 persister cells, Run #1, limit of detection 2-log10 CFU/mL): 2.7 Log10 (CFU/mL)
Viable persister count after treatment (log10 CFU/mL) ([5]; P. aeruginosa PA20 persister cells, Run #2, limit of detection 2-log10 CFU/mL): 2.3 Log10 (CFU/mL)
Viable persister count after treatment (log10 CFU/mL) ([5]; P. aeruginosa PA20 persister cells, Run #3, limit of detection 2-log10 CFU/mL): 2 Log10 (CFU/mL)
Viable persister count after treatment (log10 CFU/mL) ([5]; P. aeruginosa PA20 persister cells, average of 3 runs): 2.3 Log10 (CFU/mL)
Delta Log ([5]; P. aeruginosa PA20 persister cells, log10 CFU/mL reduction as compared to buffer): 2.1
log10 CFU/mL reduction as compared to buffer ([5]; P. aeruginosa persister cells, 1 hour at 37° C.): 2.1 log10 CFU/mL
FIC Index ([6]; Chp peptide + Amikacin): 0.281
FIC Index ([6]; Chp peptide + Azithromycin): 0.563
FIC Index ([6]; Chp peptide + Aztreonam): 0.313
FIC Index ([6]; Chp peptide + Ciprofloxacin): 0.531
FIC Index ([6]; Chp peptide + Colistin): 0.375
FIC Index ([6]; Chp peptide + Gentamicin): 0.313
FIC Index ([6]; Chp peptide + Imipenem): 0.531
FIC Index ([6]; Chp peptide + Levofloxacin): 0.5
FIC Index ([6]; Chp peptide + Meropenem): 0.375
FIC Index ([6]; Chp peptide + Piperacillin): 0.375
FIC Index ([6]; Chp peptide + Tobramycin): 0.188
Chp peptide FIC ([6]; in combination with Amikacin): 0.03125
Chp peptide MIC ([6]; in combination with Amikacin): 0.03125 mg/L
Chp peptide FIC [6, 12]: 0.0625
Chp peptide MIC [6, 12]: 0.03125 mg/L
Chp peptide FIC ([6]; in combination with Aztreonam): 0.0625
Chp peptide MIC ([6]; in combination with Aztreonam): 0.0625 mg/L
Chp peptide FIC [6, 13]: 0.5
Chp peptide MIC [6, 13]: 0.5 mg/L
Chp peptide FIC ([6]; in combination with Colistin): 0.25
Chp peptide MIC ([6]; in combination with Colistin): 0.25 mg/L
Chp peptide FIC ([6]; in combination with Gentamicin): 0.0625
Chp peptide MIC ([6]; in combination with Gentamicin): 0.0625 mg/L
Chp peptide FIC ([6]; in combination with Imipenem): 0.03125
Chp peptide MIC ([6]; in combination with Imipenem): 0.01562 mg/L
Chp peptide FIC [6, 14]: 0.25
Chp peptide MIC [6, 14]: 0.25 mg/L
Chp peptide FIC ([6]; in combination with Meropenem): 0.125
Chp peptide MIC ([6]; in combination with Meropenem): 0.125 mg/L
Chp peptide FIC [6, 15]: 0.125
Chp peptide MIC [6, 15]: 0.125 mg/L
Chp peptide FIC ([6]; in combination with Tobramycin): 0.0625
Chp peptide MIC ([6]; in combination with Tobramycin): 0.0625 mg/L
killing of P. aeruginosa, Live/Dead Cell Viability Kit [7]: reduction of live bacteria
frequency (spontaneous resistance) ([8]; CAA media with agent at 4×MIC, resistant colonies after 48 hours / total CFUs): <1.25E−09
MIC ([8]; P. aeruginosa CFS-1292, MIC underlying the 4×MIC selection): 0.25 mg/L
Serial Passage MIC Day 0 ([9]; 21-day study, Day 0, duplicates (1),(2)): 0.25 mg/L
Serial Passage MIC Day 21 ([9]; 21-day study, Day 21, duplicates (1),(2)): 0.25 mg/L
Serial Passage MIC Day 0 (untreated) ([9]; Day 0, MIC of agent on untreated control culture): 0.25 mg/L
Serial Passage MIC Day 0 ([9]; Day 0, cultures passaged with agent, duplicates (1),(2)): 0.25 mg/L
Serial Passage MIC Day 1 (untreated) ([9]; Day 1, MIC of agent on untreated control culture): 0.25 mg/L
Serial Passage MIC Day 1 ([9]; Day 1, cultures passaged with agent, duplicates (1),(2)): 0.25 mg/L
Serial Passage MIC Day 2 (untreated) ([9]; Day 2, MIC of agent on untreated control culture): 0.25 mg/L
Serial Passage MIC Day 2 ([9]; Day 2, cultures passaged with agent, duplicates (1),(2)): 0.25 mg/L
Serial Passage MIC Day 3 (untreated) ([9]; Day 3, MIC of agent on untreated control culture): 0.25 mg/L
Serial Passage MIC Day 3 ([9]; Day 3, cultures passaged with agent, duplicates (1),(2)): 0.25 mg/L
Serial Passage MIC Day 4 (untreated) ([9]; Day 4, MIC of agent on untreated control culture): 0.25 mg/L
Serial Passage MIC Day 4 ([9]; Day 4, cultures passaged with agent, duplicates (1),(2)): 0.25 mg/L
Serial Passage MIC Day 5 (untreated) ([9]; Day 5, MIC of agent on untreated control culture): 0.25 mg/L
Serial Passage MIC Day 5 ([9]; Day 5, cultures passaged with agent, duplicates (1),(2)): 0.25 mg/L
Serial Passage MIC Day 6 (untreated) ([9]; Day 6, MIC of agent on untreated control culture): 0.25 mg/L
Serial Passage MIC Day 6 ([9]; Day 6, cultures passaged with agent, duplicates (1),(2)): 0.25 mg/L
Serial Passage MIC Day 7 (untreated) ([9]; Day 7, MIC of agent on untreated control culture): 0.25 mg/L
Serial Passage MIC Day 7 ([9]; Day 7, cultures passaged with agent, duplicates (1),(2)): 0.25 mg/L
Serial Passage MIC Day 8 (untreated) ([9]; Day 8, MIC of agent on untreated control culture): 0.25 mg/L
Serial Passage MIC Day 8 ([9]; Day 8, cultures passaged with agent, duplicates (1),(2)): 0.25 mg/L
Serial Passage MIC Day 9 (untreated) ([9]; Day 9, MIC of agent on untreated control culture): 0.25 mg/L
Serial Passage MIC Day 9 ([9]; Day 9, cultures passaged with agent, duplicates (1),(2)): 0.25 mg/L
change in MIC after 21 days ([9]; serial passage): no significant change
FIC Index ([10]; Chp peptide combined with Azithromycin): 0.25
FIC Index ([10]; Chp peptide combined with Aztreonam): 0.563
FIC Index ([10]; Chp peptide combined with Colistin): 0.625
FIC Index ([10]; Chp peptide combined with Imipenem): 0.5
FIC Index ([10]; Chp peptide combined with Levofloxacin): 0.5
FIC Index ([10]; Chp peptide combined with Meropenem): 0.313
FIC Index ([10]; Chp peptide combined with Tobramycin): 0.5
Chp peptide FIC ([10]; combined with Azithromycin): 0.125
Chp peptide MIC in checkerboard ([10]; combined with Azithromycin): 0.0625 mg/L
Chp peptide FIC ([10]; combined with Aztreonam): 0.0625
Chp peptide MIC in checkerboard ([10]; combined with Aztreonam): 0.3125 mg/L
Chp peptide FIC ([10]; combined with Colistin): 0.5
Chp peptide MIC in checkerboard ([10]; combined with Colistin): 0.25 mg/L
Chp peptide FIC ([10]; combined with Imipenem): 0.25
Chp peptide MIC in checkerboard ([10]; combined with Imipenem): 0.125 mg/L
Chp peptide FIC ([10]; combined with Levofloxacin): 0.25
Chp peptide MIC in checkerboard ([10]; combined with Levofloxacin): 0.0625 mg/L
Chp peptide FIC ([10]; combined with Meropenem): 0.0625
Chp peptide MIC in checkerboard ([10]; combined with Meropenem): 0.0625 mg/L
Chp peptide FIC ([10]; combined with Tobramycin): 0.25
Chp peptide MIC in checkerboard ([10]; combined with Tobramycin): 0.125 mg/L
